# How the values were obtained:
# Type in all cases: cell-based
# [1] = target: T1, dimethylarginine dimethylaminohydrolase 1 (DDAH1) (Homo sapiens, UniProt O94760); assay: UPLC-MS of L-citrulline formation from ADMA; […] inhibition at […]
# T1 construct: recombinant DDAH1 over-expressed in HEK293T cells (lysate)
# [2] = target: T1, dimethylarginine dimethylaminohydrolase 1 (DDAH1); assay: UPLC-MS of L-citrulline formation; […] inhibition at […], time-dependent, reversible on dilution
# [3] = target: T1, dimethylarginine dimethylaminohydrolase 1 (DDAH1); assay: UPLC-MS of L-citrulline formation; […] inhibition at […], reversible on dilution
# T1 sequence (O94760 2-285): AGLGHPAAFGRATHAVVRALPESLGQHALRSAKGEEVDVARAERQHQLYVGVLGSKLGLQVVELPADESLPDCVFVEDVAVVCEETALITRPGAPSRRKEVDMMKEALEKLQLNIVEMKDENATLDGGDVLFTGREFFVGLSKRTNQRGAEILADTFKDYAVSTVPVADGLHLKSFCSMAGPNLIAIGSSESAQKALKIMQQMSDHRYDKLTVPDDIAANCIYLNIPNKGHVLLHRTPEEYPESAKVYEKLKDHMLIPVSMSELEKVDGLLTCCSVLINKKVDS
structure (smiles),measurement,setting,value
"COCCNC(N)=NCCC[C@H](N)C(=O)NS(C)(=O)=O [10a, ZST316]",%,[1],72%
"Cc1c(OCC(F)(F)F)ccnc1C[S+]([O-])c1nc2ccccc2[nH]1 (stereo not drawn) [LPZ, lansoprazole]",%,[2],23%
"COc1ccc2[nH]c([S+]([O-])Cc3ncc(C)c(OC)c3C)nc2c1 (stereo not drawn) [OPZ, omeprazole]",%,[3],24%

# Reference: PMC5460274 (Scientific Reports, 2017)
